Measurements taken from patent publication EP2845588A1, “PIN1 inhibitors for use in the prevention and/or treatment of theileriosis, and related applications” (Centre National de la Recherche Scientifique (CNRS), priority 2013, dated 2015).

Legend:
Assay type in all cases: cell-based, bovine
[1] = test system: TpMD409 cells; test: Soft agar colony forming assay, TpMD409; settings: colonies counted 10 days after plating
Method: All infected bovine cell lines used in this study were previously described: TBL3 cells were derived from in vitro infection of the spontaneous bovine-B lymphosarcoma cell line, BL3, with Hissar stock of T.annulata. The TpMD409 lymphocyte cell line are infected with T. parva. The culture conditions of these cell lines were previously described by Moreau et al., 1999. Cells were cultured in RPMI 1640 (Gibco-BRL, Paisley, UK), supplemented with 10% heat-inactivated Fetal calf serum, 4mM L-Glutamine, 25mM HEPES, 10µM β-mercaptoethanol and 100µg/ml penicillin/streptomycin in a humidified 5%CO2 atmosphere at 37°C. […] Cell numbers, as judged by Trypan Blue exclusion test, were determined by counting cells using a Countess automated cell counter (Invitrogen, CA, USA). […]
A two-layer soft agar culture system was used. […] Cultures were incubated in humidified 37°C incubators with an atmosphere of 5%CO2 in air, and control plates were monitored for growth using a microscope. At the time of maximum colony formation (10 days in culture), final colony numbers were counted manually after fixation a staining with 0.005% Crystal Violet (Sigma, Ref.: C3886).

[2] = test system: HIF1alpha transcriptional activity; test: HRE-Luciferase reporter assay
Method: Bovine cells were transfected with the 5xHRE (Staller et al., 2003) or CyclinD1- (Wulf et al., 2001) Luciferase reporters, using electroporation (Neon kit, Invitrogen, CA, USA). Mouse cells were transfected using Lipofectamine 2000 (Invitrogen, CA, USA). Transfections efficiencies were normalized to Renilla activity by co-transfection of a pRL-TK Renilla reporter plasmid (Promega, Ref.: E6241). Luciferase assays were performed 36h post-transfection using the Dual-Luciferase Reporter Assay System (Promega, Ref: E1980) in a microplate luminometer. Relative luminescence was represented as the ratio Firefly/Renilla luminescence, compared with the corresponding empty vector control. The 5xHRE promoter-Luciferase construct was obtained from P Staller (Biotech Research & Innovation Centre, Copenhagen, […]).

[3] = test system: non-parasitized BL3 cells; test: Cell proliferation, live cell count after trypan blue exclusion, BL3; settings: BL3 / uninfected cells
Method: (§1) All infected bovine cell lines used in this study were previously described: TBL3 cells were derived from in vitro infection of the spontaneous bovine-B lymphosarcoma cell line, BL3, with Hissar stock of T.annulata. The TpMD409 lymphocyte cell line are infected with T. parva. The culture conditions of these cell lines were previously described by Moreau et al., 1999. Cells were cultured in RPMI 1640 (Gibco-BRL, Paisley, UK), supplemented with 10% heat-inactivated Fetal calf serum, 4mM L-Glutamine, 25mM HEPES, 10µM β-mercaptoethanol and 100µg/ml penicillin/streptomycin in a humidified 5%CO2 atmosphere at 37°C. HepG2, NIH/3T3 and MEF cells lines were cultured in DMEM (Gibco-BRL, Paisley, UK), supplemented with 10% heat-inactivated Fetal calf serum, 4mM L-Glutamine, 25 mM HEPES, 10µM β-mercaptoethanol and 100µg/ml penicillin/streptomycin in a humidified 5% CO2 atmosphere at 37°C. Cell numbers, as judged by Trypan Blue exclusion test, were determined by counting cells using a Countess automated cell counter (Invitrogen, CA, USA). The anti-parasite drug Buparvaquone (BW720c) was used at 200ng/ml for 72 hours. BW720c has no effect on growth of uninfected cells.
Cells were treated with either Juglone at 5 µM resuspended in Ethanol (Sigma, St Louis, MO, Ref.: H47003), or PiB at 1 µM resuspended in DMSO (Sigma, Ref.: B7688), or Dimethyloxalylglycine DMOG at 0.5 mM resuspended in DMSO (Tebu-bio, MO, USA).

[4] = test system: FBW7 and c-Jun mRNA in TBL3 cells; test: RT-qPCR of FBW7 and c-Jun mRNA in TBL3 cells
Method: Total cellular RNAs were extracted using an RNeasy Plus Mini Kit (Qiagen, Hilden, Germany) and parasite RNAs were extracted using the classical Trizol Protocol. cDNA synthesis was performed with the Reverse Transcriptase Superscript III (Invitrogen, CA, USA).
Quantitative PCR amplification was performed in the ABI 7500 machine (Applied Biosystems, CA, USA) using the Sybr Green reagent (Applied Biosystems, CA, USA) using the primers listed in Table 5 below. The detection of a single product was verified by dissociation curve analysis. Relative quantities of mRNA were analyzed using the delta Ct method. The βactin qPCR was used for normalization. Table 5: qPCR primers

[5] = test system: parasite-infected cells (Theileria annulata - TBL3); test: Cell viability XTT assay, TBL3
Method: as §1, with “cells. […]” for “cells.”

[6] = test system: FBW7 and c-Jun in TBL3 cells; test: Immunoblot of FBW7 and c-Jun protein in TBL3 cells
Method: Total proteins were extracted with Laemmli lysis, sonicated: 15 secs ON / 30 secs OFF for 5 min, resolved on 10.5% acrylamide/bis-acrylamide SDS-PAGE gels and transferred to nitrocellulose membranes (Thermo Fisher Scientific, MA, USA) in transfer buffer. Protein transfer was assessed by Ponceau-red staining. Membranes were blocked in Tris-buffered saline pH7.4 containing 0.1% Tween-20 and 5% milk for 1 h at room temperature. Incubations with primary antibodies were carried out at 4°C overnight using antibody dilutions as manufacturer recommendations in Trisbuffered saline pH7.4, 0.05% Tween-20 and 5% milk. Following 1 h incubation with an anti-rabbit or anti-mouse peroxidase-conjugated antibody (Sigma, St Louis, MO, USA) at room temperature, proteins were detected by chemiluminescence (Thermo Fisher Scientific, MA, USA) following the manufacturer's instructions. The following antibodies were used: Rabbit anti-TaPIN (Home-made antibody, Proteogenix, Peptide used: […]-Cys), rabbit anti-PIN1 (Cell Signaling, Ref: 3722), rabbit anti-TaActin (kindly provided by Jake Baum, Australia), rabbit anti-c-Jun (Santa Cruz, CA, USA Ref: sc1694), mouse anti-αTubulin (Sigma, Ref: T9026), , rabbit anti-HIF1α (Abcam, Cambridge, UK; Ref: ab75918), rabbit anti-Hexokinase II (Cell Signaling, Ref: C64G5), rabbit anti-PDK1 (Cell signaling, Ref: C47H1), mouse anti-HA (Roche, Ref: 11583816001), rabbit anti-FBW7 (Bethyl Laboratories, Ref: A301-721A), rabbit anti-Histone H3 (Abcam, Ref: ab1791), rabbit anti-PKM2 (Abcam, Ref: ab38237), mouse anti-Actin (Sigma, Ref: A1978) and monoclonal anti-FLAG M2-Peroxidase (Sigma, Ref: A8592). c-Jun, FBW7 or PKM2/Actin ratios were calculated after Western blot signal quantification with the Plot Lanes Analysis tool of Image J software (National Institutes of Health, Bethesda, MD, USA).

[7] = test system: Parasite-infected TBL3 cells; test: Cell proliferation, live cell count after trypan blue exclusion, TBL3; settings: live cells counted after trypan blue exclusion
Method: as §1, with “cells. […]” for “cells.”

SMILES | transformed phenotype, colonies in soft agar [1] | HIF1alpha transcriptional activity [2] | proliferation of non-parasitized cells [3] | mRNA expression [4] | host cell viability ([5]; PiB, infected cell line not given) | FBW7 protein [6] | c-Jun levels [6] | cell proliferation [7] | viability of parasite-infected cells ([5]; TBL3, 72h, XTT assay)
CCOC(=O)CN1C(=O)c2ccc3c4c(ccc(c24)C1=O)C(=O)N(CC(=O)OCC)C3=O [PiB, benzo[Imn][3,8]phenanthroline-2,7-diacetic acid, 1,3,6,8-tetrahydro-1,3,6,8-tetraoxo-, diethyl ester] | reduced | reduced | no effect | no effect | reduced | induced | reduced | affects TBL3 cell proliferation | 
CC(C)(C)C1CCC(CC2=C(O)C(=O)c3ccccc3C2=O)CC1 (stereo not shown) [Buparvaquone, 2-((4-tert-butylcyclohexyl)methyl)-3-hydroxy-1,4-naphthoquinone] | reversed the transformed phenotype | reduced | no effect | no effect |  | induced | reduced | reduced | decreased the viability
